Laboratory results published in ChEMBL document CHEMBL4616660, “Phenylpropanoid-Conjugated Triterpenoids from the Leaves of Actinidia arguta and Their Inhibitory Activity on α-Glucosidase” (J Nat Prod, 2020).

Tested on: Saccharomyces cerevisiae
Experiment: Inhibition of Saccharomyces cerevisiae alpha-glucosidase at 100 uM using p-nitrophenyl alpha-Dglucopyranoside as substrate preincubated for 15 mins followed by substrate addition and measured after 20 mins relative to control

Row | Structure (SMILES) | inhibition [%]
1 | C=C1CC[C@]2(C(=O)O)CC[C@]3(C)C(=CC[C@@H]4[C@@]5(C)C[C@@H](O)[C@H](O)[C@@](C)(CO)[C@@H]5CC[C@]43C)[C@@H]2[C@H]1C | 13
2 | C[C@H]1[C@H](C)CC[C@]2(CO)CC[C@]3(C)C(=CC(=O)[C@@H]4[C@@]5(C)CC[C@H](O)C(C)(C)[C@@H]5CC[C@]43C)[C@H]12 | 34.3
3 | C=C1CC[C@]2(C(=O)O)CC[C@]3(C)C(=CC[C@@H]4[C@@]5(C)C[C@@H](O)[C@H](O)[C@@](C)(COC(=O)/C=C/c6ccc(O)cc6)[C@@H]5CC[C@]43C)[C@@H]2[C@H]1C | 59.9
4 | C=C1CC[C@]2(C(=O)O)CC[C@]3(C)C(=CC[C@@H]4[C@@]5(C)C[C@@H](O)[C@@H](O)[C@@](C)(CO)[C@@H]5CC[C@]43C)[C@@H]2[C@H]1C | 1.7
5 | C=C1CC[C@]2(C(=O)O)CC[C@]3(C)C(=CC[C@@H]4[C@@]5(C)C[C@@H](O)[C@H](O)[C@@](C)(COC(=O)/C=C\c6ccc(O)cc6)[C@@H]5CC[C@]43C)[C@@H]2[C@H]1C | 38.8
6 | CO[C@@H]1C(O)=C2[C@@H]3[C@@H](C)[C@H](C)CC[C@]3(C)CC[C@@]2(C)[C@]2(C)CC[C@H]3C(C)(C)[C@@H](O)CC[C@]3(C)[C@@H]12 | 23.9
7 | C=C1C=C[C@]2(C(=O)O)CC[C@]3(C)C(=CC[C@@H]4[C@@]5(C)C[C@@H](O)[C@@H](O)[C@@](C)(CO)[C@@H]5CC[C@]43C)[C@@H]2[C@H]1C | 3
8 | C[C@H]1O[C@H](O[C@H]2[C@H](O)[C@@H](O)[C@@H](O[C@H]3[C@H](O)[C@@H](O)C(O)O[C@@H]3CO)O[C@@H]2CO)[C@H](O)[C@@H](O)[C@@H]1N[C@H]1C=C(CO)[C@@H](O)[C@H](O)[C@H]1O (stereo partly specified) | 72.8

Continued, values first:

Row | inhibition [%] | Structure (SMILES)
9 | 72.8 | C[C@H]1[C@H](C)CC[C@]2(C(=O)O)CC[C@]3(C)C(=CC[C@@H]4[C@@]5(C)C[C@@H](O)[C@H](OC(=O)/C=C/c6ccc(O)c(O)c6)[C@@](C)(CO)[C@@H]5CC[C@]43C)[C@H]12
10 | 81.3 | C[C@H]1[C@H](C)CC[C@]2(C(=O)O)CC[C@]3(C)C(=CC[C@@H]4[C@@]5(C)C[C@@H](O)[C@H](OC(=O)/C=C/c6ccc(O)cc6)[C@@](C)(CO)[C@@H]5CC[C@]43C)[C@H]12
11 | 67.2 | C[C@H]1[C@H](C)CC[C@]2(C(=O)O)CC[C@]3(C)C(=CC[C@@H]4[C@@]5(C)C[C@@H](OC(=O)/C=C/c6ccc(O)cc6)[C@H](O)[C@@](C)(CO)[C@@H]5CC[C@]43C)[C@H]12
12 | 67 | C[C@H]1[C@H](C)CC[C@]2(C(=O)O)CC[C@]3(C)C(=CC[C@@H]4[C@@]5(C)C[C@@H](O)[C@H](O)[C@@](C)(COC(=O)/C=C/c6ccc(O)cc6)[C@@H]5CC[C@]43C)[C@H]12
13 | 65.8 | C=C1CC[C@]2(C(=O)O)CC[C@]3(C)C(=CC[C@@H]4[C@@]5(C)C[C@@H](O)[C@H](OC(=O)/C=C/c6ccc(O)cc6)[C@@](C)(CO)[C@@H]5CC[C@]43C)[C@@H]2[C@H]1C
14 | 59 | C[C@H]1[C@H](C)CC[C@]2(C(=O)O)CC[C@]3(C)C(=CC[C@@H]4[C@@]5(C)C[C@@H](O)[C@H](O)[C@@](C)(COC(=O)/C=C\c6ccc(O)cc6)[C@@H]5CC[C@]43C)[C@H]12
15 | 41.4 | C=C1CC[C@]2(C(=O)O)CC[C@]3(C)C(=CC[C@@H]4[C@@]5(C)C[C@@H](O)[C@H](OC(=O)/C=C\c6ccc(O)cc6)[C@@](C)(CO)[C@@H]5CC[C@]43C)[C@@H]2[C@H]1C
16 | 70.1 | C=C1CC[C@]2(C(=O)O)CC[C@]3(C)C(=CC[C@@H]4[C@@]5(C)C[C@@H](OC(=O)/C=C/c6ccc(O)cc6)[C@H](O)[C@@](C)(CO)[C@@H]5CC[C@]43C)[C@@H]2[C@H]1C
